Laboratory results: PMC13503280, “A pharmacological modality to sequester homomeric proteins” (Nature Chemical Biology, 2026)

Key:
Mino cells = assay: Viability measurements, Mino cells; format: cell-based; conditions: Mino, 72 h
Method: (§1) Cells were seeded in a transparent-bottom, black 96-well plate, at 15,000 cells per well in sixfold replications. in 90 µl of medium and left to adhere for at least 4 h. The cells were then treated with the respective compound by adding 10 µl of medium–-compound mixture for a final volume of 100 µl in each well. Cell-Titer blue reagent was used to measure viability according to the manufacturer’s instructions. Plate reader measurements were performed on a Tecan Spark Control 10 M fluorescence system.

recombinant Keap1 BTB [1] = biological target: T1, recombinant Keap1 BTB (Homo sapiens, UniProt Q14145, S172A); assay: DLS of recombinant Keap1 BTB domain; format: biochemical; conditions: 50 μM Keap1 BTB, 50 μM compound, room temperature, over time
T1 construct: The Keap1 BTB domain (48–180) encoding the single substitution S172A was cloned into pET28-bdSumo vector; His–bdSumo (N, cleaved yes); made in house; host or cells: E. coli BL21(DE3)
T1 sequence (Q14145 48-180 S172A): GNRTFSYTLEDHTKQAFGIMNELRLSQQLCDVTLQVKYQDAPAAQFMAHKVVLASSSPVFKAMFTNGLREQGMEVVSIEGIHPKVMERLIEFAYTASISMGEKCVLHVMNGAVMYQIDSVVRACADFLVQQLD
Method: (§2) DLS samples were prepared in the respective protein’s elution buffer, to which 0.01% Tween was added, along with the compound from a DMSO stock to obtain a final DMSO concentration of 2%. Samples were prepared at room temperature and measured at a constant temperature of 25 °C. All samples were passed through 0.1-μm filters and then placed in a clear-bottom black 384-well plate. DLS data were recorded using a DynaproPlate Reader III (Wyatt Technology). Data were processed with the supplied DYNAMICS software.

recombinant Keap1 BTB [2] = assay: DLS of recombinant Keap1 BTB domain; format: biochemical; conditions: 50 µM protein, 50 µM compound
Method: as §2

OCI-AML2 cells = assay: Viability measurements, OCI-AML2 cells; format: cell-based
Method: as §1

Nrf2 = assay: WB of Nrf2; format: cell-based; conditions: U2OS cells, 20 h compound treatment
Keap1 = Keap1 (Homo sapiens, UniProt Q14145); assay: WB of Keap1 in OCI-AML2 cells (soluble/insoluble phase); format: cell-based; set-up: endogenous in cells; host or cells: OCI-AML2
Keap1, sequence (Q14145 whole entry): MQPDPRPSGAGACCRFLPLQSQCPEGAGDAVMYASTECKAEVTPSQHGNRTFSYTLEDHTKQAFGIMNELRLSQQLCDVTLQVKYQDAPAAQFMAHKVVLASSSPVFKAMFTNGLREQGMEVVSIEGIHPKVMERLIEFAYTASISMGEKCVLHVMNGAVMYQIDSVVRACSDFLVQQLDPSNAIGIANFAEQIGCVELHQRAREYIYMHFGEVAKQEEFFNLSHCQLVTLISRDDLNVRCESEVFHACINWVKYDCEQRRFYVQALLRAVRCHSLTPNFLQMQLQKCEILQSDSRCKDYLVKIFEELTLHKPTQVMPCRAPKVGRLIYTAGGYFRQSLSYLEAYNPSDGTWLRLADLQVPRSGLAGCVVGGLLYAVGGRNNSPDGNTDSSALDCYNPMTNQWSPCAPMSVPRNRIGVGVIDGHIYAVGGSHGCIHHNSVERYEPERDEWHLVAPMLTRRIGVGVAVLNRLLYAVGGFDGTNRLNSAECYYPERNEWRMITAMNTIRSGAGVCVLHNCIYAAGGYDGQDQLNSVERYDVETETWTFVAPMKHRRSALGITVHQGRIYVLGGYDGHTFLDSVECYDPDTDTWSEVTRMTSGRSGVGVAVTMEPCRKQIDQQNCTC
Method: Cells were incubated with DMSO at 0.1% or with compound in concentrations ranging 10–20,000 nM for 20 h unless indicated differently. Following incubation, lysis was performed in RIPA buffer and the samples were measured for total protein quantification by BCA assay (Thermo Fisher Scientific, 23225). Then, 20–40 μg of each sample was loaded and run on an SDS–PAGE gel, before transferring onto a nitrocellulose membrane using a Trans-Blot Turbo system (Bio-Rad) and blocking using a 5% BSA in TBS-T (w/v) solution for 1 h at room temperature. Incubation with primary antibodies (mouse anti-BCL-6 (sc-7388, Santa Cruz, 1:500; overnight at 4 °C), mouse anti-Keap1 (sc-365626, Santa Cruz, 1:500; overnight at 4 °C), rabbit anti-LDHA (4H18L6, Thermo Fisher, 1:1,000; overnight at 4 °C), mouse anti-NQO2 (sc-271665, Santa Cruz, 1:500; overnight at 4 °C), rabbit anti-c-Myc (5605, Cell Signaling, 1:1,000; overnight at 4 °C) and mouse anti-β-actin (3700, Cell Signaling, 1:1,000; 1 h at room temperature) was performed and then the membranes were washed and incubated with a horseradish-peroxidase-conjugated secondary antibody (mouse 7076/rabbit 7074, Cell Signaling) at room temperature for 1 h. Imaging of the chemiluminescence signal was performed using a ChemiDoc XRS+ instrument (Bio-Rad). Primary band quantifications were normalized against β-actin bands.

In the case of `CC1(C)CCC2(C(=O)NCCOCCOCCNC(=O)C34CCC(C)(C)CC3C3C(=O)C=C5C6(C)C=C(C#N)C(=O)C(C)(C)C6CCC5(C)C3(C)CC4)CCC3(C)C(C(=O)C=C4C5(C)C=C(C#N)C(=O)C(C)(C)C5CCC43C)C2C1` (stereo not shown) [EL133], the “additional viability loss compared with BDX” value (Mino cells) is reported as “no additional viability loss”, the “formation of large species (DLS)” value (recombinant Keap1 BTB [1]) is reported as “large molecular species forming” and the “formation of large species with WT versus C151S Keap1 BTB (DLS)” value (recombinant Keap1 BTB [2]) is reported as “able to form large species in solution with the wild-type (WT) protein but not with the mutant”. The IC50 (OCI-AML2 cells; Homo sapiens, OCI-AML2, 72 h) was 265 nM, the “difference in viability IC50 over BDX” value (OCI-AML2 cells; OCI-AML2) was “fourfold” and the “Nrf2 levels (WB)” value (Nrf2) was “Nrf2 upregulation”. The “Keap1 in insoluble phase after washout (WB)” value (Keap1; OCI-AML2, 500 nM EL133 or 2.5 µM EL256 for 20 h, then washout) was “remained accumulated in the insoluble phase for up to the 96 h”, the “rescue of Keap1 downregulation by MLN-4924 or bortezomib pretreatment” value (Keap1; OCI-AML2, 1 h pretreatment, then compound 7 h) was “did not rescue Keap1 downregulation” and the “concentration at which Keap1 accumulates in the insoluble phase (as low as)” value (Keap1; OCI-AML2 cells) was 500 nM. For the same molecule, the EC50 (Keap1; OCI-AML2 cells, 20 h treatment, read-out: EC50 (Keap1 downregulation, WB)) was 102 nM.
